Source: patent US20220354949A1, “NOVEL COMPOUNDS” (XENIOPRO GmbH, priority 2018, published 2022)

How the values were obtained:
Type in all cases: cell-based
[1] = tested on: HL-60 cells (human acute myeloid leukemia cells); experiment: Proliferation assay (alamarBlue) with HL-60 cells; settings: 20 μM
Description: (§1) The antiproliferative activities of compounds falling under formula (Ia), (Ib) and (Ic), respectively, were investigated on cells or cell lines originating from a disorder of the haematopoietic system, including the myeloid cell compartment and the lymphoid cell compartment (T-cells and B-cells), the neuroendocrine system, the cervix, the breast, the ovaries, the lung, the gastrointestinal tract, and the mucosal epithelium, as well as from the skin epithelium and from the muscle. To this end, HL-60 cells, NB-4 cells, HH cells, RPMI-8402 cells, TANOUE cells, TT cells, HeLa cells, MDA-MB-231 cells, FU-OV-1 cells, LOU-NH91 cells, 23132/87 cells, CAL-27 cells, BHY cells, SCC-25 cells, A-431 cells, human primary epidermal keratinocytes (HPEK), and C2C12 cells were seeded into 96-well plates suitable for fluorescence assays (CORNING #3598) at following initial cell numbers: 1000 cells per well for HL-60; 1000 cells per well for NB-4; 5000 cells per well for HH; 5000 cells per well for RPMI-8402; 1500 cells per well for TANOUE; 9000 cells per well for TT; 2000 cells per well for HeLa; 3000 cells per well for MDA-MB-231; 3000 cells per well for FU-OV-1; 4000 cells per well for LOU-NH91; 2000 cells per well for 23132/87; 2000 cells per well for CAL-27; 1500 cells per well for BHY; 1500 cells per well for SCC-25; 700 cells per well for A-431; 1000 cells per well for HPEK; 500 cells per well for C2C12. The cells were treated with compounds at indicated final concentrations (diluted from the 1000× stock-solutions in DMSO to a final DMSO concentration of 0.1% v/v in H2O (Water For Injection, WFI, Fisherscientific #10378939)) or with the empty carrier DMSO at 0.1% v/v as control for 5 days. At day 5 after starting the treatments the cells were subjected to the alamarBlue® Proliferation Assay (Bio-Rad Serotec GmbH, BUF012B) according to the protocol of the manufacturer. The readout was taken with a multi-well plate-reader in the fluorescence mode with applying a filter for excitation at 560 nm (band width 10 nm) and for emission at 590 nm (band width 10 nm). Control treatments for growth inhibition with commercial compounds such as Methotrexate (MTREX) and Resveratrol (RES) were included on every plate. Some of the test compounds of the present invention were obtained and applied as their salts. According cases are indicated in the column “Specification” in Table 55 to Table 92 and by their sum formula in Table 93.
(§2) The assays were performed in duplicate or more replicates of independent single experiments each containing a six-fold replicate for every condition. For every individual plate, the measured fluorescence intensity values of the conditions with compound treatment were normalized against the corresponding equally weighted arithmetic mean of the fluorescence intensity values of the six DMSO treated control wells in order to obtain the relative values to a baseline level of 1.0.
(§3) Two independent outlier analyses were performed according to the methods by Peirce and Chauvenet (Ross, Journal of Engineering Technology 2003, 1-12). Outliers confirmed by at least one of the methods were excluded from the calculations but not more than one value out of six per compound within a single experiment. The weighted arithmetic mean (here abbreviated as AVEw) for each compound was calculated from the normalized values over all independent replicates of the single experiments comprising the six replicates each. The corresponding standard deviation for the weighted arithmetic mean was calculated according to the method described by Bronstein et al. (Bronstein, Semendjajew, Musiol, Müihlig, Taschenbuch der Mathematik, 5th edition 2001 (German), publisher: Verlag Harri Deutsch, Frankfurt am Main and Thun) and was combined with the Gauß' error propagation associated with the performed calculation for the normalization. The resulting standard deviation is herein referred to as “combined standard deviation”. […]

[2] = tested on: NB-4 cells (human acute promyelocytic leukemia cells); experiment: Proliferation assay (alamarBlue) with NB-4 cells; settings: 20 μM
Description: as §1, §2, §3

[3] = tested on: HH cells (human cutaneous T-cell lymphoma cells); experiment: Proliferation assay (alamarBlue) with HH cells; settings: 20 μM
Description: as §1, §2, §3

[4] = tested on: RPMI-8402 cells (human T cell acute lymphoblastic leukemia cells); experiment: Proliferation assay (alamarBlue) with RPMI-8402 cells; settings: 20 μM
Description: as §1, §2, §3

[5] = tested on: TANOUE cells (human B cell leukemia cells); experiment: Proliferation assay (alamarBlue) with TANOUE cells; settings: compound at 20 μM
Description: as §1, §2, §3

[6] = tested on: TT cells (human medullary thyroid carcinoma cells); experiment: Proliferation assay (alamarBlue) with TT cells; settings: compound at 20 μM
Description: as §1, §2, §3

[7] = tested on: LOU-NH91 cells (human lung squamous cell carcinoma cells); experiment: Proliferation assay (alamarBlue) with LOU-NH91 cells; settings: 20 μM
Description: as §1, §2, §3

[8] = tested on: 23132/87 cells (human gastric adenocarcinoma cells); experiment: Proliferation assay (alamarBlue) with 23132/87 cells; settings: 20 μM
Description: as §1, §2, §3

[9] = tested on: CAL-27 cells (human tongue squamous cell carcinoma cells); experiment: Proliferation assay (alamarBlue) with CAL-27 cells; settings: 20 μM
Description: as §1, §2, §3

[10] = tested on: A-431 cells (human epidermoid squamous cell carcinoma cells); experiment: Proliferation assay (alamarBlue) with A-431 cells; settings: 20 μM
Description: as §1, §2, §3

[11] = tested on: human epidermal keratinocyte progenitors (HPEKp, pooled); experiment: Proliferation assay (alamarBlue) with HPEKp cells; settings: control at 20 μM
Description: (§4) The antiproliferative activities of compounds falling under formula (Ia), (Ib) and (Ic), respectively, were investigated on cells or cell lines originating from a disorder of the haematopoietic system, including the myeloid cell compartment and the lymphoid cell compartment (T-cells and B-cells), the neuroendocrine system, the cervix, the breast, the ovaries, the lung, the gastrointestinal tract, and the mucosal epithelium, as well as from the skin epithelium and from the muscle. To this end, HL-60 cells, NB-4 cells, HH cells, RPMI-8402 cells, TANOUE cells, TT cells, HeLa cells, MDA-MB-231 cells, FU-OV-1 cells, LOU-NH91 cells, 23132/87 cells, CAL-27 cells, BHY cells, SCC-25 cells, A-431 cells, human primary epidermal keratinocytes (HPEK), and C2C12 cells were seeded into 96-well plates suitable for fluorescence assays (CORNING #3598) at following initial cell numbers: 1000 cells per well for HL-60; 1000 cells per well for NB-4; 5000 cells per well for HH; 5000 cells per well for RPMI-8402; 1500 cells per well for TANOUE; 9000 cells per well for TT; 2000 cells per well for HeLa; 3000 cells per well for MDA-MB-231; 3000 cells per well for FU-OV-1; 4000 cells per well for LOU-NH91; 2000 cells per well for 23132/87; 2000 cells per well for CAL-27; 1500 cells per well for BHY; 1500 cells per well for SCC-25; 700 cells per well for A-431; 1000 cells per well for HPEK; 500 cells per well for C2C12. […] The readout was taken with a multi-well plate-reader in the fluorescence mode with applying a filter for excitation at 560 nm (band width 10 nm) and for emission at 590 nm (band width 10 nm). […]
(§5) The assays were performed in duplicate or more replicates of independent single experiments each containing a six-fold replicate for every condition. For every individual plate, the measured fluorescence intensity values of the conditions with compound treatment were normalized against the corresponding equally weighted arithmetic mean of the fluorescence intensity values of the six DMSO treated control wells in order to obtain the relative values to a baseline level of 1.0. […]

[12] = tested on: C2C12 cells (murine myoblast cells); experiment: Proliferation assay (alamarBlue) with C2C12 cells; settings: compounds and controls at 20 μM
Description: as §4, §5

Question: With `CN(Cc1cnc2nc(N)nc(N)c2n1)c1ccc(C(=O)N[C@@H](CCC(=O)O)C(=O)O)cc1` [MTREX, Methotrexate] as the compound, how does the “Activity Range: weighted arithmetic mean (AVEw) of normalized fluorescence intensity, proliferation assay with HL-60 cells” value ([1]; relative to DMSO basis level 1.0, Table 55 (novel compounds)) read?
Answer: The value was 0.1 ± 0.1.

Question: And the “Activity Range: weighted arithmetic mean (AVEw) of normalized fluorescence intensity, proliferation assay with HL-60 cells” value ([1]; relative to DMSO basis level 1.0, Table 56 (compounds disclosed in PCT/EP2018/054686))?
Answer: The value was 0.1 ± 0.1.

Question: And the “Activity Range: weighted arithmetic mean (AVEw) of normalized fluorescence intensity, proliferation assay with NB-4 cells” value ([2]; relative to DMSO basis level 1.0, Table 57 (novel compounds))?
Answer: The value was 0.1 ± 0.0.

Question: And the “Activity Range: weighted arithmetic mean (AVEw) of normalized fluorescence intensity, proliferation assay with NB-4 cells” value ([2]; relative to DMSO basis level 1.0, Table 58 (compounds disclosed in PCT/EP2018/054686))?
Answer: Its value is 0.1 ± 0.0.

Question: And the “Activity Range: weighted arithmetic mean (AVEw) of normalized fluorescence intensity, proliferation assay with HH cells” value ([3]; relative to DMSO basis level 1.0, Table 59 (novel compounds))?
Answer: The value was 0.4 ± 0.1.

Question: What about the “Activity Range: weighted arithmetic mean (AVEw) of normalized fluorescence intensity, proliferation assay with HH cells” value ([3]; relative to DMSO basis level 1.0, Table 60 (compounds disclosed in PCT/EP2018/054686)) of the same compound?
Answer: The value was 0.4 ± 0.1.

Question: And the “Activity Range: weighted arithmetic mean (AVEw) of normalized fluorescence intensity, proliferation assay with RPMI-8402 cells” value ([4]; relative to DMSO basis level 1.0, Table 61 (novel compounds))?
Answer: Its value is 0.1 ± 0.0.

Question: What about the “Activity Range: weighted arithmetic mean (AVEw) of normalized fluorescence intensity, proliferation assay with RPMI-8402 cells” value ([4]; relative to DMSO basis level 1.0, Table 62 (compounds disclosed in PCT/EP2018/054686)) of the same compound?
Answer: The value was 0.1 ± 0.0.

Question: And the activity at 20 µM ([5]; Homo sapiens, B-cell, Table 63 (novel compounds), read-out: Activity Range: weighted arithmetic mean (AVEw) of normalized fluorescence intensity relative to DMSO basis level 1.0)?
Answer: The activity at 20 µM was 10%.

Question: And the “Activity Range: weighted arithmetic mean (AVEw) of normalized fluorescence intensity relative to DMSO basis level 1.0” value ([5]; Table 64 (compounds of PCT/EP2018/054686))?
Answer: The value was 0.1 ± 0.0.

Question: What about the “Activity Range: weighted arithmetic mean (AVEw) of normalized fluorescence intensity relative to DMSO basis level 1.0” value ([6]; Table 65 (novel compounds)) of the same compound?
Answer: The value was 1.0 ± 0.0.

Question: What about the “Activity Range: weighted arithmetic mean (AVEw) of normalized fluorescence intensity relative to DMSO basis level 1.0” value ([6]; Table 66 (compounds of PCT/EP2018/054686)) of the same compound?
Answer: Its value is 1 ± 0.0.

Question: What about the “Activity Range (weighted arithmetic mean AVEw of normalized fluorescence intensity, relative to DMSO basis level 1.0)” value ([7]; Table 73 (novel compounds)) of the same compound?
Answer: The value was 0.5 ± 0.1.

Question: And the “Activity Range (weighted arithmetic mean AVEw of normalized fluorescence intensity, relative to DMSO basis level 1.0)” value ([7]; Table 74 (compounds disclosed in PCT/EP2018/054686))?
Answer: Its value is 0.5 ± 0.1.

Question: What about the “Activity Range (weighted arithmetic mean AVEw of normalized fluorescence intensity, relative to DMSO basis level 1.0)” value ([8]; Table 75 (novel compounds)) of the same compound?
Answer: Its value is 0.3 ± 0.0.

Question: And the “Activity Range (weighted arithmetic mean AVEw of normalized fluorescence intensity, relative to DMSO basis level 1.0)” value ([8]; Table 76 (compounds disclosed in PCT/EP2018/054686))?
Answer: Its value is 0.3 ± 0.0.

Question: What about the “Activity Range (weighted arithmetic mean AVEw of normalized fluorescence intensity, relative to DMSO basis level 1.0)” value ([9]; Table 77 (novel compounds)) of the same compound?
Answer: The value was 0.1 ± 0.0.

Question: What about the “Activity Range (weighted arithmetic mean AVEw of normalized fluorescence intensity, relative to DMSO basis level 1.0)” value ([9]; Table 78 (compounds disclosed in PCT/EP2018/054686)) of the same compound?
Answer: Its value is 0.1 ± 0.0.

Question: And the “Activity Range (weighted arithmetic mean AVEw of normalized fluorescence intensity, relative to DMSO basis level 1.0)” value ([10]; Table 84 (novel compounds))?
Answer: Its value is 0.2 ± 0.1.

Question: What about the “Activity Range (weighted arithmetic mean AVEw of normalized fluorescence intensity, relative to DMSO basis level 1.0)” value ([10]; Table 85 (compounds disclosed in PCT/EP2018/054686)) of the same compound?
Answer: Its value is 0.2 ± 0.1.

Question: And the “Activity Range: weighted arithmetic mean (AVEw) of normalized fluorescence intensity, relative to DMSO basis level of 1.0” value [11]?
Answer: The value was 0.9 ± 0.0.

Question: What about the “Activity Range: weighted arithmetic mean (AVEw) of normalized fluorescence intensity, relative to DMSO basis level of 1.0” value [12] of the same compound?
Answer: The value was 0.1 ± 0.0.
